Patent US20160136295A1, “BIOMARKERS FOR TREATMENT WITH ANTI-TUBULIN CHEMOTHERAPEUTIC COMPOUNDS” (GENENTECH, INC., priority 2012, published 2016)
Peptide text beside a SMILES is read from it. * marks the point of attachment. Cbz = O=C(OCc1ccccc1)*

Assays:
Mcl-1 = Mcl-1 protein level / degradation in mitotic arrest (western blot of synchronized cells); format: cell-based, human
Experimental: (§1) The viability of cancer cell lines, and MEFs in which genes encoding IAPs had been knocked out, was analysed by using the CellTiter-Glo Luminescent Cell Viability Assay® (Promega). Cells were treated in triplicate with anti-tubulin agents for the indicated times, using dimethylsulphoxide treatment as a control. The viability of BCL2-family-member-null MEFs was analysed by propidium iodide staining, as described previously (Chen, L. et al. (2005) Molecular cell 17:393-403), after treatment with anti-tubulin agents for 48 h. Cell synchronization was achieved by culture either in serum-free medium for 12-16 h or in medium containing 2 mM thymidine for 18-24 h, release from the thymidine block with three washes in PBS, followed by culture for 8-12 h in complete growth media (compositions are described in the Supplementary Information). Cells then underwent a second thymidine block for 16-20 h, three further washes in PBS and release into complete medium containing the indicated reagents. To block MCL1 degradation, […] MG132 was added as cells entered mitotic arrest, as assessed by visual inspection. See the Examples for full methods.
Western blotting was performed essentially as described (Wertz, I. E. et al. (2004) Science (New York, N.Y 303:1371-1374). In brief, cells were lysed in corrected FLAG elution buffer (CFEB) (19.17 mM Tris (pH 7.5), 916.7 μM MgCl2, 92.5 mM NaCl and 0.1% Triton X-100) with protease and phosphatase inhibitors; in some cases 6 M urea was added. Cleared lysates were quantitated and equal amounts of proteins were reduced, alkylated, separated by SDS-PAGE, and transferred onto PVDF membranes (Invitrogen) following standard procedures. Western blotting was performed as recommended by the respective antibody manufacturers. Patient tissue and xenograft samples were lysed in 5× volume of CFEB with protease inhibitors using Fast prep 24 (MP Biologicals). Tissue lysates were cleared and 40 μg total protein was prepared for western blotting analysis as described above. Immunoprecipitations were performed with the indicated antibodies as described (Willis, S. N. et al. (2007) Science (New York, N.Y 315:856-859; Wertz, I. E. et al. (2004) Science (New York, N.Y 303:1371-1374). PP2A activity was performed on PP2A or Mcl-1 immunoprecipitates as recommended by the manufacturer (Upstate)

[1] = system: murine embryonic fibroblasts (MEFs); experiment: Viability of BCL2-family-member-null MEFs by propidium iodide staining after anti-tubulin agents; format: cell-based; conditions: for killing (cell viability): treated 48 hours; for sensitivity to killing: 48 hours
Experimental: as §1

HCT116 cells = experiment: Live time-lapse imaging of mitotic fate; format: cell-based, human
Experimental: HCT116 parental or FBW7−/− cells expressing shLacZ or shMcl-1 were plated at 15,000-30,000 cells per well in 96-well μ-plates (ibidi GmbH) and infected with GFP-H2B baculovirus (Invitrogen) 24 hours prior to adding paclitaxel or vincristine. Cells were imaged live at 37° C. with 5% CO2 using a Nikon TiE® microscope with a Cool Snap® CCD camera (Roper Scientific) and a Plan Apo VC 20× 0.75 NA objective. Three images with 6 μm z-steps were acquired for each position every 10 minutes for 43 hours. Mitotic fate was analyzed manually using NIS-Elements software (Nikon) and numerical data was complied and statistically analyzed using Excel (Microsoft). Fifty mitotic cells were analyzed for each condition and p-values were calculated for the change in the number of cells that exited mitosis or entered apoptosis using the one-tailed Fisher's exact test.

[2] = system: FBW7-WT, FBW7−/− or FBW7 mutant colon cancer cell lines (HCT116, DLD1); experiment: Cell viability of colon cancer cell lines by FBW7 status (CellTiter-Glo); format: cell-based, human; conditions: 48 hours
Experimental: as §1
were synthesized by Ambion and experiments were performed as described (Huang, H. C., et al (2009) Cancer cell 16:347-358). For viability experiments using stable cell lines transfected with doxycycline-inducible shRNAs to LacZ or Mcl-1 ORF, cells were plated in 10 cm2 plates with 0.2 μg/mL doxycycline for two days. On the third day, cells were plated in to 96-well plates at 5×10^3 per well for viability assays as described above. […] For western blot analysis, cells were harvested at indicated time points and processed as described above.

Mcl-1 S159 = experiment: In vitro kinase reactions: percent phosphorylation of full-length recombinant Mcl-1 at S159 alone; format: biochemical, human; conditions: % phos on S159 alone; for Percent phosphorylation S159, AVE: average; for Percent phosphorylation S159, INJ1: sample injection 1; for Percent phosphorylation S159, INJ2: sample injection 2
Experimental: (§2) To determine the suitability of residues in Mcl-1 as kinase substrates, 10 μM of Mcl-1 was incubated with selected kinase at enzyme concentrations between 25 and 100 nM. For these reactions the Mcl-1 was dialyzed into 20 mM Phosphate, 50 mM Tris pH 7.5 150 mM NaCl, 5 mM DTT and 0.5% CHAPS. The protein solution was further supplemented with MgCl2 to 10 mM and ATP to 1 mM prior to addition of kinase. Purified recombinant kinases were purchased from Invitrogen Co. (Carlsbad, Calif.).
(§3) 10 μl of each of the Mcl-1 kinase reactions (100 pmol) were loaded onto a 4-12% Bis-Tris gel for separation by SDS-PAGE after reduction. Mcl-1 bands were excised from the gel, dehydrated (50% acetonitrile in 50 mM ammonium bicarbonate then 100% acetonitrile washes), and incubated with 0.2 μg trypsin overnight at 37° C.
Samples were injected in duplicate via autosampler onto a nanoAcquity® UPLC (Waters, Milford, Mass.) and analyzed on-line via nanospray ionization into an LTQ-Orbitrap® mass spectrometer at a concentration of 300 fmol synthetic peptide mix per injection. Areas were integrated for the isotopic and kinase phosphorylated peptides, and compared to their non-phosphorylated peptide counterparts to obtain percent phosphorylation values. For phosphorylation analysis of T92, no synthetic peptide was available so peak areas of the phosphorylated peptide covering residues 76-95 was divided by the total occurrence of peptide 76-95 in both phosphorylated and non-phosphorylated forms.

Mcl-1 S159/T163 = experiment: In vitro kinase reactions: percent phosphorylation of full-length recombinant Mcl-1 at S159+T163; format: biochemical, human; conditions: for Percent phosphorylation S159/T163, AVE: average; for Percent phosphorylation S159/T163, INJ1: sample injection 1; for Percent phosphorylation S159/T163, INJ2: sample injection 2
Experimental: as §2, §3
(§4) Samples were injected in duplicate via autosampler onto a nanoAcquity® UPLC (Waters, Milford, Mass.) and analyzed on-line via nanospray ionization into an LTQ-Orbitrap® mass spectrometer at a concentration of 300 fmol synthetic peptide mix per injection. Areas were integrated for the isotopic and kinase phosphorylated peptides, and compared to their non-phosphorylated peptide counterparts to obtain percent phosphorylation values.

Mcl-1 S121 = experiment: In vitro kinase reactions: percent phosphorylation of full-length recombinant Mcl-1 at S121; format: biochemical, human; conditions: for Percent phosphorylation S121, AVE: average of INJ1 and INJ2; for Percent phosphorylation S121, INJ1: sample injection 1; for Percent phosphorylation S121, INJ2: sample injection 2
Experimental: as §2, §3, §4

Mcl-1 T163 = experiment: In vitro kinase reactions: percent phosphorylation of full-length recombinant Mcl-1 at T163; format: biochemical, human; conditions: single kinase reactions; for Percent phosphorylation T163, AVE: average of INJ1 and INJ2; for Percent phosphorylation T163, INJ1: sample injection 1; for Percent phosphorylation T163, INJ2: sample injection 2
Experimental: as §2, §3, §4

Mcl-1 T92 = experiment: In vitro kinase reactions: percent phosphorylation of full-length recombinant Mcl-1 at T92; format: biochemical, human; conditions: single kinase reactions, peak areas of 0 and 1P, triple charged state; for Percent phosphorylation T92, AVE: average; for Percent phosphorylation T92, INJ1: sample injection 1; for Percent phosphorylation T92, INJ2: sample injection 2
Experimental: as §2, §3, §4

[3] = % phos on S159+T163, CDK1 + kinase panel reactions
[4] = % phos on S159+T163, single kinase reactions

Row | Compound | Percent phosphorylation S159/T163, AVE (Mcl-1 S159/T163; [3]) [%] | Percent phosphorylation S159/T163, INJ1 (Mcl-1 S159/T163; [3]) [%] | Percent phosphorylation S159/T163, INJ2 (Mcl-1 S159/T163; [3]) [%] | Percent phosphorylation S159/T163, AVE (Mcl-1 S159/T163; [4]) [%] | Percent phosphorylation S159/T163, INJ1 (Mcl-1 S159/T163; [4]) [%] | Percent phosphorylation S159/T163, INJ2 (Mcl-1 S159/T163; [4]) [%] | Percent phosphorylation S121, AVE (Mcl-1 S121; CDK1 + kinase panel reactions) [%] | Percent phosphorylation S121, INJ1 (Mcl-1 S121; CDK1 + kinase panel reactions) [%] | Percent phosphorylation S121, INJ2 (Mcl-1 S121; CDK1 + kinase panel reactions) [%] | Percent phosphorylation S121, AVE (Mcl-1 S121; single kinase reactions) [%] | Percent phosphorylation S121, INJ1 (Mcl-1 S121; single kinase reactions) [%] | Percent phosphorylation S121, INJ2 (Mcl-1 S121; single kinase reactions) [%] | Percent phosphorylation T163, AVE (Mcl-1 T163) [%] | Percent phosphorylation T163, INJ1 (Mcl-1 T163) [%] | Percent phosphorylation T163, INJ2 (Mcl-1 T163) [%] | Percent phosphorylation T92, AVE (Mcl-1 T92) [%] | Percent phosphorylation T92, INJ1 (Mcl-1 T92) [%] | Percent phosphorylation T92, INJ2 (Mcl-1 T92) [%] | other results
1 | Nc1[nH]nc2nnc(-c3c(-c4ccccc4)nn4ccccc34)cc12 [FR180204] | – | – | – | – | – | – | – | – | – | – | – | – | – | – | – | – | – | – | Mcl-1 degradation in mitotic arrest (Mcl-1; HeLa released into paclitaxel, CGP74514A 2 μM, FR180204 2 μM, SP600125 25 μM, SB203580 2 μM added on entry into mitotic arrest): but not ERK, attenuate Mcl-1 degradation
2 | CC(C)C[C@@H](C=O)NC(=O)[C@H](CC(C)C)NC(=O)[C@H](CC(C)C)NC(=O)OCc1ccccc1 [MG132] (Cbz-Leu-Leu-Leu-aldehyde) | – | – | – | – | – | – | – | – | – | – | – | – | – | – | – | – | – | – | Mcl-1 degradation in mitotic arrest (Mcl-1; HeLa, HCT116 cells, MG132 added as cells entered mitotic arrest): blocked Mcl-1 degradation
3 | COC(=O)Nc1nc2ccc(C(=O)c3cccs3)cc2[nH]1 [nocodazole] | – | – | – | – | – | – | – | – | – | – | – | – | – | – | – | – | – | – | Mcl-1 protein level in mitotic arrest (Mcl-1; synchronized cells (HeLa) released into the agent): declined markedly; killing (cell viability) ([1]; BAX−/−/BAK−/− MEFs): resistant; killing (cell viability) ([1]; wild-type MEFs): significantly more sensitive
4 | CC[C@]1(O)C[C@H]2CN(CCc3c([nH]c4ccccc34)[C@@](C(=O)OC)(c3cc4c(cc3OC)N(C=O)[C@H]3[C@@](O)(C(=O)OC)[C@H](OC(C)=O)[C@]5(CC)C=CCN6CC[C@]43[C@@H]65)C2)C1 [vincristine, 22-Oxovincaleukoblastine] | – | – | – | – | – | – | – | – | – | – | – | – | – | – | – | – | – | – | drug-induced apoptosis upon decreasing Mcl-1 protein levels (HCT116 cells; FBW7-null cells with Mcl-1 shRNA vs control shRNA): enhanced; exit from drug-induced mitotic arrest (mitotic slippage) (HCT116 cells; FBW7-null vs FBW7-wild-type cells): more readily; sensitivity to drug-induced death upon reducing Mcl-1 protein ([2]; FBW7-null HCT116 cells, doxycycline-inducible Mcl-1 shRNA): restored their sensitivity; resistance to drug-induced cell death ([2]; FBW7-null cell lines relative to wild-type cells): more resistant; sensitivity to killing ([1]; BCL-X−/− MEFs vs wild-type): not BCL-X enhances sensitivity; sensitivity to killing ([1]; MCL-1−/− MEFs vs wild-type): enhanced sensitivity
5 | CSNK2: purified recombinant kinase purchased from Invitrogen | 7.70 | 8.30 | 7.09 | 3.80 | 5.61 | 1.99 | 21.48 | 20.17 | 22.78 | 10.28 | 10.20 | 10.36 | 0.00 | 0.00 | 0.00 | 0.10 | 0.09 | 0.10 | Percent phosphorylation S159, AVE (Mcl-1 S159; CDK1 + kinase panel reactions): 17.13%; Percent phosphorylation S159, INJ1 (Mcl-1 S159; CDK1 + kinase panel reactions): 16.35%; Percent phosphorylation S159, INJ2 (Mcl-1 S159; CDK1 + kinase panel reactions): 17.90%; Percent phosphorylation S159, AVE (Mcl-1 S159; single kinase reactions): 39.13%; Percent phosphorylation S159, INJ1 (Mcl-1 S159; single kinase reactions): 40.30%; Percent phosphorylation S159, INJ2 (Mcl-1 S159; single kinase reactions): 37.95%
6 | MAPK9: purified recombinant kinase purchased from Invitrogen | 0.61 | 0.73 | 0.49 | 4.82 | 5.41 | 4.22 | 11.82 | 11.75 | 11.89 | 6.02 | 6.46 | 5.57 | 48.52 | 48.92 | 48.11 | 2.02 | 2.30 | 1.74 | –
7 | MAPK14: purified recombinant kinase purchased from Invitrogen | 2.14 | 1.84 | 2.43 | 4.35 | 1.12 | 7.57 | 20.58 | 21.26 | 19.90 | 5.26 | 7.22 | 3.29 | 76.20 | 79.44 | 72.96 | 8.94 | 9.67 | 8.20 | –
